Results: patent US20030073117A1, “Novel protein and gene encoding the protein” (Daiichi Pharmaceutical Co., Ltd., priority 2000, published 2003)

Key:
SAC1 [1] = biological target: T1, SAC1 (Mus musculus, UniProt Q9EPK8); experiment: Fluorescence measurement (fura-2) of SAC1 expression cells under touch stress; type: cell-based; conditions: SAC1 expression CHO cells (GFP positive), touched by glass pipette, added Gd^3+; no added Gd^3+ gave 12.8 ± 1.4, control cells 4.5 ± 3.8
T1 construct: the region containing the full length was amplified by PCR using primer set (A13st1 and mA13end1); expressed in transfected cells; host or cells: CHO cells, transient co-transfection of SAC1 in pCMV-SPORT with pEGFP-N1 as a separate marker plasmid
T1 sequence (Q9EPK8 whole entry): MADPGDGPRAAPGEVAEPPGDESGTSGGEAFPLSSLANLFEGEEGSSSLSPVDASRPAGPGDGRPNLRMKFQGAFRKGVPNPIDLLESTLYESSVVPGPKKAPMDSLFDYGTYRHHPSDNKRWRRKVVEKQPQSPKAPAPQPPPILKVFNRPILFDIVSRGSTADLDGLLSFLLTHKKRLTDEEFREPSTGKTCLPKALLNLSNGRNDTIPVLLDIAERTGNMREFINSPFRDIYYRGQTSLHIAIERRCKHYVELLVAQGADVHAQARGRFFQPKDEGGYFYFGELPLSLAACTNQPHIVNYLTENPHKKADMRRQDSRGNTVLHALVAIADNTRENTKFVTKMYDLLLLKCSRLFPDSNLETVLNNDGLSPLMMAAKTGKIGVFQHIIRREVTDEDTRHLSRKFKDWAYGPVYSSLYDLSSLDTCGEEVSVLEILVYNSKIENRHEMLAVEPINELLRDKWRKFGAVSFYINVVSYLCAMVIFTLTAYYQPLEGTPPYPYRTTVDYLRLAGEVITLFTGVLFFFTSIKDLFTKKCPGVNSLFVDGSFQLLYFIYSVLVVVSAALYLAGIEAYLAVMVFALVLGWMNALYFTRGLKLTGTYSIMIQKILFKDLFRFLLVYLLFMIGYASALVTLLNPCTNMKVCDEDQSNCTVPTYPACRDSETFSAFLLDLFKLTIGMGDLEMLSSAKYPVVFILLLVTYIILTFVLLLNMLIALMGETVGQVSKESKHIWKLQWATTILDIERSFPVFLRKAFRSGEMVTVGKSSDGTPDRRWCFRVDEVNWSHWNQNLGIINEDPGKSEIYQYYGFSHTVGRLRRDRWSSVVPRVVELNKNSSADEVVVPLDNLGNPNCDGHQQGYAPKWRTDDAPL
Procedure: (§1) The plasmid (pEGFP-N1; Clonetech Co.) expressing a green fluorescent protein was used as a marker for transfection. For the transient expression of protein, CHO cells were cultured in a HamF-12 culture medium (Gibco-BRL Co.) supplemented with 10% fetal bovine serum, 100 U/ml penicillin, and 100 μg/ml streptomycin. On the day before transformation, CHO cells (10^5 cells) were seeded to a 35 mm dish in which a cover slip coated with rat tail collagen was placed. On the next day, SAC1 plasmid (1 μg) in PCMV-SPORT (Gibco-BRL Co.) and pEGFP-N1 (1 μg) were added per one transfection to a mixture of serum-free medium (97 μl) and FuGENE6 (Roche, 3 μl) which had been incubated for 5 minutes at room temperature. […] The electrophysiological test was started after 24 hours and the fluorescence measurement was carried out 48 hours after the transfection.
For 2-3 hours prior to start of the test, the transformed cells were incubated with 10 μM fura-2AM (Dojin Co.) dissolved in a serum-free culture medium. GFP fluorescence at 480 nm and fura-2 fluorescence at 360/380 nm were visualized by a manual exchange of dichroic Olympus system mirrors (Merlin Co.). Images for the fluorescence at 480 nm and fluorescence at 360/380 nm were obtained every two seconds. The fluorescence intensity of the objective area was calculated for analysis. […]

SAC1 [2] = biological target: T1, SAC1; experiment: Single channel analysis (patch clamp) of SAC1 expression cells under negative pressure; type: cell-based
Procedure: as §1, with “placed.” for “placed. On the next day, SAC1 plasmid (1 μg) in PCMV-SPORT (Gibco-BRL Co.) and pEGFP-N1 (1 μg) were added per one transfection to a mixture of serum-free medium (97 μl) and FuGENE6 (Roche, 3 μl) which had been incubated for 5 minutes at room temperature.”
Patch clamp recordings were carried out according to the method described in a previous paper (Suzuki, M., Sato, J., Kutsuwada, K., Ooki, G. and Imai, M. (1999) J. Biol. Chem. 274, 6330-5). GFP positive cells were visualized by a fluorescence measurement with an emission of 490 nm (CAM 2000 system; Jusco Co., Ltd.). […] In single channel analysis, the current was recorded with an EPC-7 patch clamp amplifier (List-Electronic Co., Ltd.) and stored on a DAT recorder (DAT-200; Sony Corp.) at 10 KHz. […] The data were analyzed using Igor ver. […] To analyze the open probability in the presence of GdCl3, single channel amplitude was set for those without reagent and the mean open probability (Po) was determined by the records during 10 seconds. […]

change of the fura-2 fluorescence ratio (360 nm/380 nm) on mechanical stimulus (SAC1 [1]): 4.8 ± 1.4 (10)
response (mean open probability Po) to negative pressure (SAC1 [2]; 0.5 μM GdCl3 added to the pipette, cell-attached, FIG. 3C): not affected
effect on single channel activated by negative pressure (SAC1 [2]; transformed cells that express SAC1): blocked
SMILES: [Cl][Gd]([Cl])[Cl] [Gd^3+, GdCl3]
